Here are results for 1 compound from patent US20230392127A1, “METHOD FOR CONSTRUCTION OF ATOPIC DERMATITIS MODEL BY USING PLURIPOTENT STEM CELL-DERIVED SKIN ORGANOID” (KANGSTEM BIOTECH CO., LTD., priority 2020, published 2023).

Assay [1] deals with cartilage expression markers COL2A, ACAN, and SOX9. Nature of the assay: Real-time PCR of cartilage expression markers in skin organoids. In kind it is cell-based, human. The following applies: skin organoids on day 69; real-time PCR normalized to GAPDH; CHIR(+) vs CHIR(-); FIG. 8. The protocol: As a method for evaluating gene expression, cells were lysed and genes were extracted using a lysis buffer, and gene expression was quantified using RT-PCR. To evaluate gene expression, total RNA was isolated with an RNeasy kit (Qiagen, Cat. No. 74106) and cDNA was prepared according to the manufacturer's instructions using Reverse Transcriptase III (Thermo Fisher Scientific, Cat. No. 4368814). Real-time PCR was performed using SRBR Green Master Mix (Thermo Fisher Scientific, Cat. No. A25776) and detection was performed using a Step One Plus Real-time PCR system (Applied Biosystems). The expression of genes was normalized to the expression of glyceraldehyde-3-phosphate dehydrogenase (GAPDH). The degree of gene expression was evaluated using primers specific for COL2A, ACAN, and SOX9 mRNAs.
For orientation: Real-time PCR tracks product formation cycle by cycle.

The test system of assay [2] is induced pluripotent stem cell-derived skin organoids. Nature of the assay: Skin organoid size and cartilage formation after Wnt signaling pathway activation (brightfield images). In kind it is cell-based, human. The protocol:
A skin organoid was cultured based on the literature disclosing an existing skin organoid differentiation protocol using induced pluripotent stem cell lines (Lee, J. et al. Hair-bearing human skin generated entirely from pluripotent stem cells. Nature 582, 399-404(2020)). The induced pluripotent stem cell colony was separated into small cell populations using ReLeSR™ (Stem Cell Technology) and then separated into single cells using Accutase (ThermoFisher). For embryoid body formation, 1000 single cells were aliquoted into each well of a U-bottom low-attachment 96-well plate (Corning). Essential 8 (Gibco) supplemented with Y-27632 (20 μM) was used as an embryoid body culture solution. The single cells were cultured for 2 days until the embryoid body grew to a size of 300 to 500 μm. On day 2 of differentiation, the formed embryoid bodies were transferred to a culture solution including 2% Matrigel (Matrigel; Corning), 10 μM SB431542 (Tocris), 4 ng/ml FGF2 (PeproTech) and 15 ng/ml BMP4 (PeproTech) for non-neural ectoderm differentiation induction. […] The skin organoid to be analyzed was photographed with an EVOS XL Core brightfield system microscope (Thermo Fisher) at ×40 magnification. […]

As to `Cc1c[nH]c(-c2cnc(NCCNc3ccc(C#N)cn3)nc2-c2ccc(Cl)cc2Cl)n1` [CHIR-99021], in assay [1], the “gene expression level of cartilage expression marker ACAN” value is reported as “remarkably reduced”, the “gene expression level of cartilage expression marker COL2A” value is reported as “remarkably reduced” and the “gene expression level of cartilage expression marker SOX9” value is “remarkably reduced”. Further, the “cartilage formation in skin organoids” value in assay [2] (0.5 to 8 μM added on day 6, organoids on days 38, 65 and 85, vs CHIR(-), FIG. 7) is “cartilage was not formed”. Further, in assay [2] (0.5 to 8 μM added to culture solution on day 6 of differentiation, compared to skin organoids generated by the existing method (CHIR(-)), FIGS. 6 and 7), the “sizes of the organoids” value is given as “remarkably increased”.
